From patent US11345702B1 (Myoforte Therapeutics, Inc., priority 2020, dated 2022) come the findings set out here.

For one data set, the target named is 15-PGDH/HPGD (Homo sapiens (Human), UniProt P15428). Put plainly: hPGDH inhibitor screening biochemical assay. As to conditions: read-out: hPGDH: Average IC50. In a few lines: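 Ten-point dose-response inhibition of 15-PGDH measured by fluorescence (340/485 nm) after 10 min at room temperature with PGE2 (15 μM) and NAD+ (0.25 mM), following 10 min enzyme (10 nM)–compound pre-incubation at 37 °C. Buffer: 50 mM Tris-HCl pH 7.5, 0.01% Tween 20. Percent inhibition relative to 1% DMSO; four-parameter IC50.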

Data set [1] in a line: Liver microsome stability assay (MLM). The class given is in vitro ADME. As to conditions: mouse liver microsomes. The procedure: A microsomal mixture (microsomes and Kphos buffer) was prepared at a concentration of 1.428 mg/mL in 2 mL tubes. To this microsomal mixture 1.6 μL (1 mM) of test compound and positive control were spiked; from this mixture, 70 μL was transferred to 96 well plate and pre-incubated at 37° C. for 5 min. After pre-incubation, the zero minute time point reaction was stopped using 100 μL of ice-cold acetonitrile containing internal standard and […] (3.33 mM in Kphos buffer) was added. The 45 minute time point reaction was initiated by addition of 30 μL of NADPH (3.33 mM in Kphos buffer) and incubated at 37° C. for 15 and 45 min. Reactions without NADPH and buffer controls (minus NADPH) at 0, 15, and 45 minutes were also incubated to rule out non-NADPH metabolism or chemical instability in the incubation buffer. Incubation reactions were stopped with 100 μL of ice-cold acetonitrile containing internal standard. The plates were centrifuged at 4000 RPM for 15 min and 100 μL aliquots were submitted for analysis by LC-MS/MS. (Verapamil in human liver microsomes (HLM) and rat liver microsomes (RLM) was used as positive controls. Imipramine in mouse liver microsomes (MLM) was used as a positive control.) Samples were monitored for parent compound disappearance in MRM mode (multiple reaction monitoring) using LC-MS/MS. The peak area ratios of analyte versus internal standard were used to calculate the % remaining at the end of 45 minutes in the presence of NADPH.
In general terms: Liver microsomes are vesicles of endoplasmic reticulum, rich in cytochrome P450 enzymes.

15-PGDH/HPGD, sequence (P15428 whole entry): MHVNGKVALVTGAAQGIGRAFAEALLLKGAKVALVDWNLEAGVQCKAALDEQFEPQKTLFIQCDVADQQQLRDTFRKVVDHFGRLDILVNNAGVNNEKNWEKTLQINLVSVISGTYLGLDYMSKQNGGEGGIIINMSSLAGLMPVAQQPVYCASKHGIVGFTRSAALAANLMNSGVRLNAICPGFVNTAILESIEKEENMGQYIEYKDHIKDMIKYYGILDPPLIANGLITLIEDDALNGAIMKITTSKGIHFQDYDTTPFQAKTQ

The term IC50 denotes the point on the concentration scale where inhibition reaches its midpoint. As to `O=C(O)c1cccc(-n2ccc3cc(C(=O)N4CCC(F)(F)CC4)cnc32)c1` [MF-DH-507, 3-(5-(4,4-difluoropiperidine-1-carbonyl)-1H-pyrrolo[2,3-b]pyridin-1-yl)benzoic acid], at 15-PGDH/HPGD, the IC50 is less than 100 nM. Also, the “MLM + NADPH (% remaining at 45 min)” value in data set [1] was found to be 97%.

For `O=C(c1cnc2c(ccn2-c2cncc(N3CCOC3=O)c2)c1)N1CCC(F)(F)CC1` [MF-DH-472], the IC50 on 15-PGDH/HPGD was less than 100 nM. Moreover, the “MLM + NADPH (% remaining at 45 min)” value in data set [1] worked out at 83%.

Take `O=C(c1cnc2c(ccn2-c2cncc(-c3nc[nH]n3)c2)c1)N1CCC(F)(F)CC1` [MF-DH-516, (1-(5-(1H-1,2,4-triazol-3-yl)pyridin-3-yl)-1H-pyrrolo[2,3-b]pyridin-5-yl)(4,4-difluoropiperidin-1-yl)methanone]: the IC50 on 15-PGDH/HPGD was less than 100 nM. Besides, the “MLM + NADPH (% remaining at 45 min)” value in data set [1] was 88%.

For `NC(=O)c1ccc(-n2cnc3cc(C(=O)N4CCC(F)(F)CC4)cnc32)cc1` [MF-DH-464], the IC50 at 15-PGDH/HPGD was less than 100 nM. For the same compound, the “MLM + NADPH (% remaining at 45 min)” value in data set [1] is given as 100%.

On to `NCCNC(=O)c1ccc(-n2ccc3cc(C(=O)N4CCC(F)(F)CC4)cnc32)cc1` [MF-DH-411, N-(2-aminoethyl)-4-(5-(4,4-difluoropiperidine-1-carbonyl)-1H-pyrrolo[2,3-b]pyridin-1-yl)benzamide], for which, on 15-PGDH/HPGD, the IC50 was less than 100 nM. Moreover, the “MLM + NADPH (% remaining at 45 min)” value in data set [1] is 87%.

As to `CC(C)(C)C(=O)NCCNC(=O)c1ccc(-n2ccc3cc(C(=O)N4CCC(F)(F)CC4)cnc32)cc1` [MF-DH-403, 4-(5-(4,4-difluoropiperidine-1-carbonyl)-1H-pyrrolo[2,3-b]pyridin-1-yl)-N-(2-pivalamidoethyl)benzamide], the IC50 at 15-PGDH/HPGD is less than 100 nM. In data set [1], the “MLM + NADPH (% remaining at 45 min)” value stood at 45%.

As for `Cc1nc(-c2ccc(-n3ccc4cc(C(=O)N5CCC(F)(F)CC5)cnc43)cn2)no1` [MF-DH-471, (4,4-difluoropiperidin-1-yl)(1-(6-(5-methyl-1,2,4-oxadiazol-3-yl)pyridin-3-yl)-1H-pyrrolo[2,3-b]pyridin-5-yl)methanone], the IC50 at 15-PGDH/HPGD is less than 100 nM. Also, the “MLM + NADPH (% remaining at 45 min)” value in data set [1] came to 99%.

As for `CC(C)(O)CNC(=O)c1cc(Cl)cc(-n2ccc3cc(C(=O)N4CCC(F)(F)CC4)cnc32)c1` [MF-DH-521], the IC50 on 15-PGDH/HPGD was less than 100 nM. Besides, in data set [1], the “MLM + NADPH (% remaining at 45 min)” value is 84%.

Consider `O=C(c1cnc2c(ccn2-c2ccc(-c3nnc(C(F)(F)F)[nH]3)nc2)c1)N1CCC(F)(F)CC1` [MF-DH-519, (4,4-difluoropiperidin-1-yl)(1-(6-(5-(trifluoromethyl)-4H-1,2,4-triazol-3-yl)pyridin-3-yl)-1H-pyrrolo[2,3-b]pyridin-5-yl)methanone], for which, on 15-PGDH/HPGD, the IC50 was less than 100 nM. Further, the “MLM + NADPH (% remaining at 45 min)” value in data set [1] stood at 89%.

On to `CS(=O)(=O)NC(=O)c1ccc(-n2ccc3cc(C(=O)N4CCC(F)(F)CC4)cnc32)cc1` [MF-DH-428, 4-(5-(4,4-difluoropiperidine-1-carbonyl)-1H-pyrrolo[2,3-b]pyridin-1-yl)-N-(methylsulfonyl)benzamide], for which the IC50 at 15-PGDH/HPGD was less than 100 nM. Also, the “MLM + NADPH (% remaining at 45 min)” value in data set [1] is 97%.

Regarding `O=C(c1cnc2c(ccn2-c2ccc(-c3nn[nH]n3)cc2)c1)N1CCC(F)(F)CC1` [MF-DH-514, (1-(4-(2H-tetrazol-5-yl)phenyl)-1H-pyrrolo[2,3-b]pyridin-5-yl)(4,4-difluoropiperidin-1-yl)methanone], the IC50 at 15-PGDH/HPGD was less than 100 nM. In addition, the “MLM + NADPH (% remaining at 45 min)” value in data set [1] stood at 110%.

For the compound `CC(C)(C)NC(=O)c1cncc(-n2ccc3cc(C(=O)N4CCC(F)(F)CC4)cnc32)c1` [MF-DH-448, N-(tert-butyl)-5-(5-(4,4-difluoropiperidine-1-carbonyl)-1H-pyrrolo[2,3-b]pyridin-1-yl)nicotinamide], on 15-PGDH/HPGD, the IC50 was less than 100 nM. Besides, the “MLM + NADPH (% remaining at 45 min)” value in data set [1] was found to be 79%.
